In patent US20260201008A1, “SECRETIN-DERIVED GLP1R SELECTIVE AGONISTS” (GUBRA A/S, priority 2023, published 2026):
Like-named read-outs stand apart in the source and are kept apart here. Numbered stars: 1 amine (or outer) side, 2 acyl side, 3 side chain; on linkers, the order of the positions; unused ones are H or OH. Square brackets hold non-standard residues; d marks the D form. Side chains are listed from the residue outwards. Peptide text beside a SMILES is read from it. * marks the point of attachment. C18 diacid = O=C(O)CCCCCCCCCCCCCCCCC(=O)*; γGlu = O=C(O)[C@H](CCC(=O)[*:2])N[*:1]; AEEA = NCCOCCOCC(=O)O; Aib = CC(C)(N)C(=O)O

Assays:
SCTR = SCTR (Homo sapiens, UniProt P47872); experiment: hSCTR potency, cAMP accumulation in CHO-K1 cells stably overexpressing hSCTR; assay type: cell-based; design: alternatively Euroscreen ES-712-AF; FAST-0161L; host or cells: CHO-K1; conditions: read-out: pEC50 hSCTR (converted)
Chain of SCTR (P47872 23-440): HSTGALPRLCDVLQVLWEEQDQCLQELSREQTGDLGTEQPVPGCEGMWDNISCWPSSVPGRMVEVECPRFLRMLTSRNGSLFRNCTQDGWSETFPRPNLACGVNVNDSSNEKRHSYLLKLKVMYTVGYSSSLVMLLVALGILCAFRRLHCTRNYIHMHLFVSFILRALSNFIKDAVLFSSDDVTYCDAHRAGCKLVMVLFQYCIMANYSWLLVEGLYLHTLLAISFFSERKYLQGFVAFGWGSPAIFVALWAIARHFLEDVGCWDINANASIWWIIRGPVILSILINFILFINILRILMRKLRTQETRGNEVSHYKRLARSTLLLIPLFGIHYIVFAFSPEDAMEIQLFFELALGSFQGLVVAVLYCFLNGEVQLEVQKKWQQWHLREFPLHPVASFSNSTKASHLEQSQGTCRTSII
Excerpt: (§1) Crude library peptides are screened in 10-fold serial dilutions of 5 concentrations, n=1 time. Tip change is done for the first two serial dilutions. Compound starting concentration (top) will be adjusted throughout the study if needed.
(§2) Purified peptides are screened in 3-fold serial dilutions of 11 concentrations, n=2 times. Tip change is done for all serial dilutions. Compound starting concentration (top) will be adjusted throughout the study. If the top concentration is adjusted or a 5-fold difference in calculated EC50 values is observed, n is increased by 1. EC50 values were calculated by nonlinear regression using sigmoid concentration-response with variable slope.
(§3) Frozen division arrested CHO-K1 cells stably overexpressing the hSCTR were obtained from PerkinElmer (ES-712-AF). Alternatively, a CHO-K1 cell line stably overexpressing the hSCTR was obtained from Euroscreen (FAST-0161L), expanded, aliquoted and frozen. An aliquot was thawed and plated in DPBS with 0.05% casein and 0.5 mM IBMX as 2000 cells/well in a 384-well format. The cells were then immediately stimulated for 30 min at room temperature with graded doses of test compound using human secretin (synthesized at Gubra) as a positive control. cAMP accumulation was measured using a Cisbio assay for Gs coupled receptors (cat. no. 62AM4PEC), where the assay reagents were added as per the manufacturer's instructions and time-resolved fluorescence energy transfer recorded after one hour on a CLARIOstar (BMG Labtech) plate reader.

GLP1R = GLP1R (Homo sapiens, UniProt P43220); experiment: hGLP1R potency, cAMP accumulation in CHO-K1 cells stably overexpressing hGLP1R; assay type: cell-based; design: host or cells: CHO-K1; conditions: for Selectivity: SCTR EC50/GLP1R EC50 ratio
Chain of GLP1R (P43220 24-463): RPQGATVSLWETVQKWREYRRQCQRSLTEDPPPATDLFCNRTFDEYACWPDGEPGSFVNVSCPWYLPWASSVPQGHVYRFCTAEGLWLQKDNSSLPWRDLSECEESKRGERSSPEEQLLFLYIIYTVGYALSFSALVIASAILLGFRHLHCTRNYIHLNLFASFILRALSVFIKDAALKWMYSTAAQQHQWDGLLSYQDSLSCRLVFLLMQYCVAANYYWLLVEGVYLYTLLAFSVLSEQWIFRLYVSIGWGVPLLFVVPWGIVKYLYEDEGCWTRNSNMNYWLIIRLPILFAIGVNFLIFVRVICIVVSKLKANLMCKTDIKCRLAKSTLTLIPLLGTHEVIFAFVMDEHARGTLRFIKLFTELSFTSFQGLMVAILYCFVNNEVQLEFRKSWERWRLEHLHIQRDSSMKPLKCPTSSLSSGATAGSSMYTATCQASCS
Excerpt: as §1, §2
as §3, with “A” for “Frozen division arrested CHO-K1 cells stably overexpressing the hSCTR were obtained from PerkinElmer (ES-712-AF). Alternatively, a”, “hGLP1R” for “hSCTR”, “(FAST-0145L),” for “(FAST-0161L),”, “GLP-1(7-36)” for “secretin”

[1] = Table 2, extended 30 amino acid peptides
[2] = Table 2, extended 30 amino acid peptides, read-out: PEC50 hGLPR1 (converted)
[3] = Table 4, position X12 variants of GUB06-046

| EC50 (SCTR; [1]) | Selectivity (GLP1R; [1]) | EC50 (GLP1R; [2]) | EC50 (SCTR; [3]) | Selectivity (GLP1R; [3]) | EC50 (GLP1R; Table 4, position X12 variants of GUB06-046, read-out: pEC50 hGLPR1 (converted)) | SMILES |
| --- | --- | --- | --- | --- | --- | --- |
| 2510 nM | 285714 | 0.01 nM |  |  |  | CC(C)C[C@H](NC(=O)[C@H](Cc1ccccc1)NC(=O)[C@H](CCCNC(=N)N)NC(=O)[C@H](CCC(N)=O)NC(=O)[C@H](CCC(=O)O)NC(=O)[C@H](C)NC(=O)[C@H](C)NC(=O)CNC(=O)[C@H](CCC(=O)O)NC(=O)[C@H](CCCCNC(=O)COCCOCCNC(=O)COCCOCCNC(=O)CC[C@H](NC(=O)CCCCCCCCCCCCCCCCC(=O)O)C(=O)O)NC(=O)[C@H](CC(C)C)NC(=O)[C@H](CCCNC(=N)N)NC(=O)[C@H](CO)NC(=O)[C@@H](NC(=O)[C@H](CC(=O)O)NC(=O)[C@H](CO)NC(=O)[C@@H](NC(=O)[C@H](Cc1ccccc1)NC(=O)[C@@H](NC(=O)CNC(=O)[C@H](CCC(=O)O)NC(=O)C(C)(C)NC(=O)[C@@H](N)Cc1c[nH]cn1)[C@@H](C)O)[C@@H](C)O)C(C)C)C(=O)N[C@@H](CCC(N)=O)C(=O)N[C@@H](Cc1c[nH]cn1)C(=O)N[C@@H](CC(C)C)C(=O)N[C@H](C(=O)N[C@@H](CCC(=O)O)C(=O)N[C@@H](C)C(=O)N[C@@H](CCC(=O)O)C(N)=O)C(C)C [compound 204] (H-H[Aib]EGTFTSDVSRLK([AEEA-AEEA-γGlu-C18 diacid])EGAAEQRFLQHLVEAE-NH2) |
|  |  |  | 7.94 nM | 328 | 0.0251 nM | CC[C@H](C)[C@H](NC(=O)[C@H](Cc1ccccc1)NC(=O)[C@H](CCCNC(=N)N)NC(=O)[C@H](CCC(N)=O)NC(=O)[C@H](CC(C)C)NC(=O)[C@H](C)NC(=O)[C@H](C)NC(=O)CNC(=O)[C@H](CCC(=O)O)NC(=O)[C@H](CC(C)C)NC(=O)[C@H](CC(C)C)NC(=O)[C@H](Cc1ccccc1)NC(=O)[C@H](CO)NC(=O)[C@H](CC(C)C)NC(=O)[C@H](CC(=O)O)NC(=O)[C@H](CO)NC(=O)[C@@H](NC(=O)[C@H](Cc1ccccc1)NC(=O)[C@@H](NC(=O)CNC(=O)[C@H](CCC(=O)O)NC(=O)C(C)(C)NC(=O)[C@@H](N)Cc1c[nH]cn1)[C@@H](C)O)[C@@H](C)O)C(=O)N[C@@H](CCC(N)=O)C(=O)N[C@@H](Cc1c[nH]c2ccccc12)C(=O)N[C@@H](CC(C)C)C(=O)N[C@H](C(N)=O)C(C)C [compound 225] (H-H[Aib]EGTFTSDLSFLLEGAALQRFIQWLV-NH2) |
| 5010 nM | 312500 | 0.0158 nM |  |  |  | CC(C)C[C@H](NC(=O)[C@H](Cc1ccccc1)NC(=O)[C@H](CCCNC(=N)N)NC(=O)[C@H](CCC(N)=O)NC(=O)[C@H](CCC(=O)O)NC(=O)[C@H](C)NC(=O)[C@H](C)NC(=O)CNC(=O)[C@H](CCC(=O)O)NC(=O)[C@H](CCCCNC(=O)COCCOCCNC(=O)COCCOCCNC(=O)CC[C@H](NC(=O)CCCCCCCCCCCCCCCCC(=O)O)C(=O)O)NC(=O)[C@H](CC(C)C)NC(=O)[C@H](CCCNC(=N)N)NC(=O)[C@H](CO)NC(=O)[C@@H](NC(=O)[C@H](CC(=O)O)NC(=O)[C@H](CO)NC(=O)[C@@H](NC(=O)[C@H](Cc1ccccc1)NC(=O)[C@@H](NC(=O)CNC(=O)[C@H](CCC(=O)O)NC(=O)C(C)(C)NC(=O)[C@@H](N)Cc1c[nH]cn1)[C@@H](C)O)[C@@H](C)O)C(C)C)C(=O)N[C@@H](CCC(N)=O)C(=O)N[C@@H](Cc1c[nH]cn1)C(=O)N[C@@H](CC(C)C)C(=O)N[C@H](C(=O)N[C@@H](C)C(=O)N[C@@H](C)C(=O)N[C@@H](CCC(=O)O)C(N)=O)C(C)C [compound 206] (H-H[Aib]EGTFTSDVSRLK([AEEA-AEEA-γGlu-C18 diacid])EGAAEQRFLQHLVAAE-NH2) |
